“And” between values parts separate entries of the source, which are not always exact repeats. Equal values may be shown once.
Assays:
[1] = test system: NF-κB pathway in THP-1 cells; assay: THP-1 NF-κB pathway SEAP reporter, lipopolysaccharide stimulation; format: cell-based, human; conditions: LPS + compound, three replicates
Protocol: THP-1 in vitro experiments
THP-1-DualTM cells (InvivoGen), derived from a human monocytic cell line, isolated from a patient with acute monocytic leukaemia, were cultured as per manufacturer’s guidance. Cells were seeded at 1x10^6 cells/mL in RPMI1640 media containing 10% fetal bovine serum (FBS), 1% penicillin-streptomycin (PS) (Gibco Laboratories) with DMSO (0.1%) (control) or in media containing JMS-175- […]
ng/mL) (Merck Life Science), ODN 2216 (1 µM) (Miltenyi Biotec), or Poly:IC (1 µg/mL) (InvivoGen).
Tofacitinib (Cambridge Biosciences) at 0.4 µM was used for comparison against a known JAK inhibitor.
Cells were centrifuged at 300 g for 5 minutes. Supernatant was removed and subjected to simultaneous study of the NF -κB pathway, by monitoring the activity of secreted alkaline phosphatase reporter (SEAP), and the IRF pathway, by assessing the activity o f a secreted Lucia luciferase using QUANTI - Blue ™ Solution and QUANTI -Luc™ 4 Lucia/Gaussia (InvivoGen), respectively, as per manufacturer’s instructions. Pelleted cells were used for FACS analysis using IFNα/β R1 APC-conjugated antibody or isotype control (Biotechne, FAB245A and IC002A), or unstained staining procedure with and without Zombie GreenTM (Biolegend). Samples were analysed using CytoFlex LX (Beckman) (50,000 live cells per condition). Median fluorescence intensity for APC channel gated on single cell live cells was analysed and compared as a percentage to control (no stimulation condition). […]

[2] = test system: ISG expression in MCF10A Cas9 cells expressing BRCC45 WT; assay: MCF10A BRCC45 WT ISG expression (RT–qPCR); format: cell-based, human; design: scale not given here; conditions: BRCC45 KO+ BRCC45 WT; replicate values
Protocol: Supplementary Protocols 1. Experimental procedures for cell biology experiments. […]
Media supplements including human insulin solution (Santa Cruz Biotechnology, #sc-360248), cholera toxin from vibrio (Sigma Aldrich, #C8052-2MG), recombinant human EGF (PeproTech, #AF-100-15-100µg), hydrocortisone (Sigma-Aldrich, #H-0888) were used to grow MCF10A cells. The 4–12% Bis-Tris SDS-PAGE gels, cell culture media, horse serum and other materials for tissue culture were purchased from Invitrogen. LipoD293 (SigmaGen, #SL100668) was used for all the transfections to generate knock out cell lines.
Immortalised breast epithelial cell line MCF10A were cultured in 10 cm plates with Dulbecco’s Modified Eagle Medium (DMEM) + F-12 (1:1) supplemented with 5% horse serum, 100 ng/mL cholera toxin, 10 […]
Real-time quantitative PCR
1x10^5 MCF10A cells were cultured as described above and seeded into 6 well plates. Cells were left to reach ultra-confluence. Once confluent, cells were washed with PBS and starved for 30 minutes in 2 mL DMEM + F-12 (1:1) supplemented with 1% horse serum. After 30 minutes cells were pre-treated with either DMSO (0.1%) (Control and IFN only) or BRISC inhibitor (2.5 µM) for 15 minutes. After 15 minutes, hIFN2α (75 ng/mL) was added to the media and mixed. Cells were treated for 4 hours. Cells were washed with ice cold PBS and scraped with cell scrapers into 350 µL RNAlater buffer and RNA […]
#79254). Isolated RNA was quantified using a Nanodrop spectrophotometer. RNA was converted into cDNA and the complementary DNA was used for real-time quantitative PCR analysis of expression of interferon stimulated genes (ISG15, IFIT1, IFIT2, IFITM1, CXCL10 and RNA18S) using an Applied Biosystems Quantstudio 6 RT-PCR system. All experiments were carried out in triplicate.

[3] = test system: CXCL10 secretion in SSc PBMCs; assay: SSc PBMC CXCL10 ELISA, unstimulated; format: cell-based, human; conditions: for CXCL10 secretion: basal, nonstimulated SSc PBMCs, 16 h
Protocol: PBMCs in vitro experiments
Peripheral blood mononuclear cells (PBMCs) from healthy and SSc donors were separated using density gradient method (Leucosep™, Greiner Bio-One International) from EDTA anticoagulated peripheral blood; isolated cells were washed twice by PBS. PBMCs were then incubated in RPMI1640 […]
For healthy PBMCs, cells were stimulated with 20 ng/mL of IFN (+/- compounds or DMSO). For SSc PBMCs, cells were in basal conditions with no additional IFN stimulation. Cells were centrifuged at 300 g for 10 minutes. Supernatant was removed and subjected to R&D Systems DY266 Human CXCL10/IP-10 DuoSet ELISA (Biotechne) in duplicates, according to manufacturer’s guidance. Concentration of CXCL10 was determined according to a 4-parameter

BRISC (FL) = molecular target: T1, BRISC (FL) (Homo sapiens, UniProt P46736+Q15018+Q9NXR7); assay: In-gel deubiquitylation assay, TAMRA-labeled K63-tetraubiquitin, BRISC; format: biochemical; conditions: 10 μM or 100 μM inhibitor
T1 construct: full-length BRISC (FL), ARISC (FL); made in house; host or cells: Spodoptera frugiperda Sf9 insect cells (MultiBac)
Protocol: (§1) The inhibitor capzimin (Merck) was diluted in 1 mM DTT and incubated for 30 min at room temperature to reduce disulfide bonds required for inhibitor activity. […] DUBs were incubated with 750 nM TAMRA-labeled K63-tetraubiquitin (LifeSensors, SI6304T) for 10 min at 30 °C. Reactions were quenched by adding 2.5 μl of 4× SDS–PAGE loading dye (240 mM Tris-HCl pH 6.8, 40% v/v glycerol, 8% w/v SDS, 0.04% w/v bromophenol blue and 5% v/v β-mercaptoethanol). The samples were resolved on 4–12% NuPAGE Bis–Tris gels (Thermo Fisher Scientific). Gels were scanned using an iBright FL 1500 (Thermo Fisher Scientific) (excitation, 515–545 nm; emission, 568–617 nm; exposure, 500 ms).

ARISC (FL) = molecular target: T2, ARISC (FL) (Homo sapiens, UniProt P46736+Q6UWZ7+Q9NXR7); assay: In-gel deubiquitylation assay, TAMRA-labeled K63-tetraubiquitin, ARISC; format: biochemical; conditions: 10 μM or 100 μM inhibitor
T2 construct: full-length BRISC (FL), ARISC (FL); made in house; host or cells: Spodoptera frugiperda Sf9 insect cells (MultiBac)
Protocol: as §1

inhibition of BRISC cleavage of K63-linked tetraubiquitin (BRISC (FL))	inhibition of ARISC activity against tetraubiquitin (ARISC (FL))	SMILES	NF-κB SEAP reporter signal [1]	ISG expression (Fig. 5b) [2]	ISG expression (Fig. 5c) [2]	ISG expression (Fig. 5e) [2]	ISG expression (Fig. 5f) [2]	ISG expression (Fig. 5d) [2]	CXCL10, SSc donor PBMCs (Fig. 6d) ([3]; SSc donor ID 68)	CXCL10, SSc donor PBMCs (Fig. 6d) ([3]; SSc donor ID 78)	CXCL10, SSc donor PBMCs (Fig. 6d) ([3]; SSc donor ID 79)	CXCL10, SSc donor PBMCs (Fig. 6d) ([3]; SSc donor ID 142)	CXCL10, SSc donor PBMCs (Fig. 6d) ([3]; SSc donor ID 205)	CXCL10, SSc donor PBMCs (Fig. 6d) ([3]; SSc donor ID 219)	CXCL10, SSc donor PBMCs (Fig. 6d) ([3]; SSc donor ID 244)	CXCL10 secretion [3]
–	–	Cn1cc(NC(=O)c2c(Cl)cccc2Cl)c(C(=O)NC2CCN(C(=O)c3c(Cl)cccc3Cl)CC2)n1 [AP-5-145]	1.142 and 1.08 and 1.107	0.8808 and 1 and 0.9871 and 1.027 and 0.974	0.8403 and 0.921 and 1.057 and 1.089 and 1.101	0.7343 and 0.7561 and 0.8094 and 1.106 and 1.138	0.7564 and 0.7183 and 0.7628 and 1.249 and 0.9766	1.013 and 1.064 and 1.1762 and 1.007 and 0.9192	80	67.741	66.2158	86.6322	91.7468	90.6622	57.7808	–
inhibit	did not inhibit	O=C(NC1C2CNCC21)c1nn(C(=O)c2c(Cl)cccc2Cl)cc1NC(=O)c1c(Cl)cccc1Cl (stereo not drawn) [FX-171-C]	1.133 and 1.071 and 1.161	0.4458 and 0.5019 and 0.5077 and 0.4274 and 0.4977	0.4481 and 0.428 and 0.4516 and 0.3326 and 0.4475	0.653 and 0.6751 and 0.6387 and 0.3593 and 0.4619	0.6515 and 0.6181 and 0.6111 and 0.3694 and 0.504	0.3965 and 0.3703 and 0.3895 and 0.4078 and 0.5134	72.6224	6.824	0	86.6599	108.154	48.1818	0	reduced CXCL10 secretion
inhibit	did not inhibit	O=C(NC1CCNCC1)c1nn(C(=O)c2c(Cl)cccc2Cl)cc1NC(=O)c1c(Cl)cccc1Cl [JMS-175-2]	1.156 and 1.103 and 1.152	0.5319 and 0.5863 and 0.5604 and 0.6288 and 0.7746	0.5095 and 0.5499 and 0.6199 and 0.6187 and 0.6726	0.6564 and 0.7321 and 0.7949 and 0.5784 and 0.6638	0.7407 and 0.6852 and 0.6633 and 0.7235 and 0.5173	0.4933 and 0.4932 and 0.5473 and 0.4528 and 0.6627	66.733	0	0	7.1246	83.3318	3.3086	0	reduced CXCL10 secretion

— PMC7617869, “Molecular glues that inhibit deubiquitylase activity and inflammatory signaling” (Nature Structural & Molecular Biology, 2025)
